Measured values reported in ChEMBL document CHEMBL1201862, “PubChem BioAssay data set” (2004).
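Five compound concentrations were applied to cells in 96-well plates for 48 hours; endpoints were derived by simple linear interpolation of the resulting dose-response curve. Abbreviation: GI50, concentration required for 50% inhibition of growth.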 The source made the active and inactive calls. Cut-off read from the data, not from the text of the source: active = GI50 up to about 1.1 µM and inactive = higher.

What was measured:
Assay in all cases: NCI tumour cell line growth inhibition, 48 h
Hs-578T = tested on: Hs-578T
NCI/ADR-RES = tested on: NCI/ADR-RES
SNB-75 = tested on: SNB-75
HCT-116 = tested on: HCT-116
MCF7 = tested on: MCF7
BT-549 = tested on: BT-549
MDA-N = tested on: MDA-N
SNB-19 = tested on: SNB-19
HT-29 = tested on: HT-29
TK-10 = tested on: TK-10
RXF 393 = tested on: RXF 393
NCI-H522 = tested on: NCI-H522
UO-31 = tested on: UO-31
786-0 = tested on: 786-0
SK-MEL-5 = tested on: SK-MEL-5
K562 = tested on: K562
LOX IMVI = tested on: LOX IMVI
SK-OV-3 = tested on: SK-OV-3
CCRF-CEM = tested on: CCRF-CEM
SK-MEL-28 = tested on: SK-MEL-28
T47D = tested on: T47D
RPMI-8226 = tested on: RPMI-8226
PC-3 = tested on: PC-3
OVCAR-4 = tested on: OVCAR-4
SR = tested on: SR
A549 = tested on: A549
SK-MEL-2 = tested on: SK-MEL-2
KM12 = tested on: KM12
MDA-MB-231 = tested on: MDA-MB-231
MDA-MB-435 = tested on: MDA-MB-435
UACC-62 = tested on: UACC-62
DU-145 = tested on: DU-145
HCT-15 = tested on: HCT-15
CAKI-1 = tested on: CAKI-1
OVCAR-8 = tested on: OVCAR-8
COLO 205 = tested on: COLO 205
EKVX = tested on: EKVX
OVCAR-5 = tested on: OVCAR-5
NCI-H460 = tested on: NCI-H460
M14 = tested on: M14
ACHN = tested on: ACHN
UACC-257 = tested on: UACC-257
OVCAR-3 = tested on: OVCAR-3
SF-539 = tested on: SF-539
SF-268 = tested on: SF-268
SN12C = tested on: SN12C
NCI-H226 = tested on: NCI-H226
HL-60 = tested on: HL-60
MOLT-4 = tested on: MOLT-4
SF-295 = tested on: SF-295
HOP-62 = tested on: HOP-62
U-251 = tested on: U-251
IGROV-1 = tested on: IGROV-1
SW-620 = tested on: SW-620
A498 = tested on: A498
Malme-3M = tested on: Malme-3M
NCI-H23 = tested on: NCI-H23
HCC 2998 = tested on: HCC 2998
HOP-92 = tested on: HOP-92

C[C@]12c3c4cc(NC(=O)C(=O)NCc5ccc(-c6ccccn6)nc5)cc3Oc3cc(NC(=O)C(=O)NCc5ccc(-c6ccccn6)nc5)cc(c31)OC1C=C(NC(=O)C(=O)NCc3ccc(-c5ccccn5)nc3)C=C(O4)C12 (some centres not stated)
GI50 (Hs-578T): > 100 µM (inactive)
GI50 (NCI/ADR-RES): 49.7 µM (inactive)
GI50 (SNB-75): 16.4 µM (inactive)
GI50 (HCT-116): 29.2 µM (inactive)
GI50 (MCF7): 33.7 µM (inactive)
GI50 (BT-549): > 100 µM (inactive)
GI50 (MDA-N): 34 µM (inactive)
GI50 (SNB-19): > 100 µM (inactive)
GI50 (HT-29): 12.1 µM (inactive)
GI50 (TK-10): > 100 µM (inactive)
GI50 (RXF 393): > 100 µM (inactive)
GI50 (NCI-H522): 66.5 µM (inactive)
GI50 (UO-31): 22.3 µM (inactive)
GI50 (786-0): 18.1 µM (inactive)
GI50 (SK-MEL-5): 35.3 µM (inactive)
GI50 (K562): 84.9 µM (inactive)
GI50 (LOX IMVI): 17.6 µM (inactive)
GI50 (SK-OV-3): 17 µM (inactive)
GI50 (CCRF-CEM): 16.6 µM (inactive)
GI50 (SK-MEL-28): 95.1 µM (inactive)
GI50 (T47D): 26.7 µM (inactive)
GI50 (RPMI-8226): 42.1 µM (inactive)
GI50 (PC-3): 61.5 µM (inactive)
GI50 (OVCAR-4): 3.47 µM (inactive)
GI50 (SR): 3.83 µM (inactive)
GI50 (A549): 86.5 µM (inactive)
GI50 (SK-MEL-2): 38.7 µM (inactive)
GI50 (KM12): 16.3 µM (inactive)
GI50 (MDA-MB-231): 9.59 µM (inactive)
GI50 (MDA-MB-435): 97.9 µM (inactive)
GI50 (UACC-62): 24.5 µM (inactive)
GI50 (DU-145): 18.8 µM (inactive)
GI50 (HCT-15): 27.8 µM
GI50 (CAKI-1): 21.2 µM (inactive)
GI50 (OVCAR-8): 21.9 µM (inactive)
GI50 (COLO 205): 23.1 µM (inactive)
GI50 (EKVX): 11.5 µM (inactive)
GI50 (OVCAR-5): > 100 µM (inactive)
GI50 (NCI-H460): 17.1 µM (inactive)
GI50 (M14): 98.2 µM (inactive)
GI50 (ACHN): 14.3 µM (inactive)
GI50 (UACC-257): 52.2 µM (inactive)
GI50 (OVCAR-3): 35.6 µM (inactive)
GI50 (SF-539): 29.3 µM (inactive)
GI50 (SF-268): 16.8 µM (inactive)
GI50 (SN12C): 40.9 µM (inactive)
GI50 (NCI-H226): 29.6 µM (inactive)
GI50 (HL-60): 14.6 µM (inactive)
GI50 (MOLT-4): 12.6 µM (inactive)
GI50 (SF-295): 25.4 µM (inactive)
GI50 (HOP-62): > 100 µM (inactive)
GI50 (U-251): 84.9 µM (inactive)
GI50 (IGROV-1): 16.9 µM (inactive)
GI50 (SW-620): > 100 µM (inactive)

CN1C(=O)C(O)CC1c1ccc(C(F)(F)F)cc1 (configuration not stated)
GI50 (Hs-578T): > 100 µM (inactive)
GI50 (NCI/ADR-RES): > 100 µM (inactive)
GI50 (SNB-75): > 100 µM (inactive)
GI50 (HCT-116): > 100 µM (inactive)
GI50 (A498): > 100 µM (inactive)
GI50 (MCF7): > 100 µM (inactive)
GI50 (BT-549): > 100 µM (inactive)
GI50 (MDA-N): > 100 µM (inactive)
GI50 (SNB-19): > 100 µM (inactive)
GI50 (HT-29): > 100 µM (inactive)
GI50 (TK-10): > 100 µM (inactive)
GI50 (RXF 393): > 100 µM (inactive)
GI50 (NCI-H522): > 100 µM (inactive)
GI50 (UO-31): > 100 µM (inactive)
GI50 (786-0): > 100 µM (inactive)
GI50 (SK-MEL-5): > 100 µM (inactive)
GI50 (Malme-3M): > 100 µM (inactive)
GI50 (K562): > 100 µM (inactive)
GI50 (LOX IMVI): > 100 µM (inactive)
GI50 (SK-OV-3): > 100 µM (inactive)
GI50 (CCRF-CEM): > 100 µM (inactive)
GI50 (SK-MEL-28): > 100 µM (inactive)
GI50 (T47D): > 100 µM (inactive)
GI50 (RPMI-8226): > 100 µM (inactive)
GI50 (PC-3): > 100 µM (inactive)
GI50 (OVCAR-4): > 100 µM (inactive)
GI50 (A549): > 100 µM (inactive)
GI50 (SK-MEL-2): > 100 µM (inactive)
GI50 (KM12): > 100 µM (inactive)
GI50 (MDA-MB-231): > 100 µM (inactive)
GI50 (MDA-MB-435): > 100 µM (inactive)
GI50 (UACC-62): > 100 µM (inactive)
GI50 (DU-145): > 100 µM (inactive)
GI50 (NCI-H23): > 100 µM (inactive)
GI50 (HCT-15): > 100 µM
GI50 (CAKI-1): > 100 µM (inactive)
GI50 (OVCAR-8): > 100 µM (inactive)
GI50 (COLO 205): > 100 µM (inactive)
GI50 (HCC 2998): > 100 µM (inactive)
GI50 (EKVX): > 100 µM (inactive)
GI50 (OVCAR-5): > 100 µM (inactive)
GI50 (NCI-H460): > 100 µM (inactive)
GI50 (M14): > 100 µM (inactive)
GI50 (ACHN): > 100 µM (inactive)
GI50 (UACC-257): 44.1 µM (inactive)
GI50 (OVCAR-3): > 100 µM (inactive)
GI50 (SF-539): > 100 µM (inactive)
GI50 (SF-268): > 100 µM (inactive)
GI50 (SN12C): > 100 µM (inactive)
GI50 (NCI-H226): > 100 µM (inactive)
GI50 (HL-60): > 100 µM (inactive)
GI50 (MOLT-4): > 100 µM (inactive)
GI50 (SF-295): > 100 µM (inactive)
GI50 (HOP-62): > 100 µM (inactive)
GI50 (U-251): > 100 µM (inactive)
GI50 (IGROV-1): > 100 µM (inactive)
GI50 (HOP-92): > 100 µM (inactive)
GI50 (SW-620): > 100 µM (inactive)
